Assay results published in patent US8143259B2, “Cold menthol receptor antagonists” (Janssen Pharmaceutica, NV, priority 2008, dated 2012).
Several values for one entry are separate records, joined by “and”; a condition that tells them apart may be missing. Equal entries are not always repeated.

Molecular target: T1, canine TRPM8 (Canis lupus familiaris, UniProt Q1A7N1)
T1 construct: expressed in transfected cells
Assay: In Vitro Canine TRPM8 Functional Assay (Ca2+ fluorescence, icilin activation)
Assay type: cell-based
Settings: for inhibition at 0.2 µM: HEK293, 0.2 μM compound; for IC50: HEK293 cells stably expressing canine TRPM8, icilin activation, Ca2+ fluorescence; for % Inh @ 0.2 μM: 0.2 μM compound; for inhibition at 0.5 µM: HEK293, 0.5 μM compound; for % Inh @ 0.5 μM: 0.5 μM compound
Experimental: The functional activity of compounds of the formula (I) was determined by measuring changes in intracellular calcium concentration using a Ca^2+-sensitive fluorescent dye. The changes in fluorescent signal were monitored by a fluorescence plate reader, either a FLIPR™ (Molecular Devices) or FDSS (Hamamatsu). Increases in intracellular Ca^2+ concentration were readily detected upon activation with icilin.
HEK293 cells stably expressing canine TRPM8 were routinely grown as monolayers in Dulbecco's minimum essential medium supplemented with 10% FBS, 2 mM L-glutamine, 100 units/mL penicillin, 100 ug/mL streptomycin and 400 μg/mL G418. Cells were maintained in 5% CO2 at 37° C. At 24 hrs prior to assay, cells were seeded in black wall, clear-base poly-D-lysine coated 384-well plates (BD Biosciences, NJ, USA) at a density of 5,000 cells per well in culture medium and grown overnight in 5% CO2 at 37° C. On assay day, growth media was removed and cells were loaded with Calcium 3 Dye (Molecular Devices) for 35 min at 37° C., under 5% CO2 and then for 25 min at room temperature and atmosphere. Subsequently, cells were tested for agonist-induced increases in intracellular Ca^2+ levels using FLIPR™ or FDSS. Cells were challenged with compounds of the formula (I) (at varying concentrations) and intracellular Ca^2+ was measured for 5 min prior to the addition of icilin to all wells to achieve a final concentration that produces approximately an 80% maximal response.
Maximal fluorescence intensity (FI) achieved upon addition of icilin was exported from the FLIPR or FDSS software and further analyzed using GraphPad Prism 3.02 (Graph Pad Software Inc., CA, U.S.A.). Basal FI was subtracted prior to normalizing data to percent of maximal response. Curves were generated using the average of quadruplicate wells for each data point, were analyzed using nonlinear regression of either sigmoidal dose response or sigmoidal dose response (variable slope).

[1] = canine TRPM8 HEK293, icilin, 0.2 µM
[2] = canine TRPM8 HEK293, icilin, 0.5 µM

T1 sequence (Q1A7N1 1-1104): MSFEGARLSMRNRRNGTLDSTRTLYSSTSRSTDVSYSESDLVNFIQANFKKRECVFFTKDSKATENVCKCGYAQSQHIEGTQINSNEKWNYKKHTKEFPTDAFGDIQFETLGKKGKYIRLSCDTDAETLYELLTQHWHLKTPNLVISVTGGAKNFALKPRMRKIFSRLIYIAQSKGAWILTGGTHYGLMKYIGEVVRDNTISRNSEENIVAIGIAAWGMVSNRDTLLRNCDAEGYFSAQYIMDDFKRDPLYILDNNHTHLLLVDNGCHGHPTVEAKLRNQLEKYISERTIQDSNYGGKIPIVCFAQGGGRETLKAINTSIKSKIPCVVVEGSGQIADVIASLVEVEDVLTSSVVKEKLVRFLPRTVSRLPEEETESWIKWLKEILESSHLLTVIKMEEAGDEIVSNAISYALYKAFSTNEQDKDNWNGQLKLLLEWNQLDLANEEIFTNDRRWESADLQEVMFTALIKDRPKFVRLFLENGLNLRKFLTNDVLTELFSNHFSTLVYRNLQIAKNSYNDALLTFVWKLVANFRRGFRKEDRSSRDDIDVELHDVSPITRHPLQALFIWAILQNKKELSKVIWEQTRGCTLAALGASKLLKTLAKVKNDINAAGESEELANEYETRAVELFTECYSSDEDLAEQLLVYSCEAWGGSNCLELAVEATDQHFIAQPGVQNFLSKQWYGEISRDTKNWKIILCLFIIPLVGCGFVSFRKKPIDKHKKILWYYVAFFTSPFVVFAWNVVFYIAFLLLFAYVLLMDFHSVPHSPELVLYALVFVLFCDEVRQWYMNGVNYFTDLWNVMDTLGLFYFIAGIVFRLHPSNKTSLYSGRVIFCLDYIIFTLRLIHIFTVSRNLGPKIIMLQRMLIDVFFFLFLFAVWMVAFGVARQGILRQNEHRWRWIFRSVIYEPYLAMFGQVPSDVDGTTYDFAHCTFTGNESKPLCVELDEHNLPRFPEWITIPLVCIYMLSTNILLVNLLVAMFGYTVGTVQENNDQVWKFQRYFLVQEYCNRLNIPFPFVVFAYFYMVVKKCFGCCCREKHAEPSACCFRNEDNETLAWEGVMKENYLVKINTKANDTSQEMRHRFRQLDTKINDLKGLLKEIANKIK

| inhibition at 0.2 µM (canine TRPM8 HEK293, icilin) | IC50 | inhibition at 0.5 µM (canine TRPM8 HEK293, icilin) | Molecule | also measured |
| --- | --- | --- | --- | --- |
| 100% | 22 nM |  | CN(C)c1cccc([C@H]2CCCN2C(=O)C(Nc2ccccc2F)c2ccc(C(F)(F)F)cc2)c1 (mixture of isomers) [Cpd 348] |  |
| 98% | 44 nM |  | O=C(C(Nc1ccccc1F)c1ccc(C(F)(F)F)cc1)N1CCCC1c1cncc(Br)c1 (stereo not drawn) [Cpd 344] |  |
| 101% | 26 nM |  | COc1ccccc1[C@@H]1CCCN1C(=O)C(Nc1ccccc1F)c1ccc(N2CCCCC2)nc1 (mixture of isomers) [Cpd 335] |  |
|  | 24 nM |  | Cc1nc2ccc(C(Nc3ccccc3F)C(=O)N3CCCC3c3ccccc3F)cc2s1 (single isomer, unassigned) [Cpd 341] | % Inh @ 0.2 μM [1]: 100% |
| 89% | 7 nM and 12 nM and 13 nM | 103% | O=C(C(Nc1ccccc1F)c1ccc(C(F)(F)F)cc1)N1CCCC1c1ccccc1Cl (racemic) [Cpd 68] |  |
|  | 7 nM | 97% | COc1ccccc1C1CCCN1C(=O)C(Nc1ccccc1F)c1ccc(Br)cc1 (racemic) [Cpd 90] |  |
|  | 44 nM |  | O=C(C(Nc1ccccc1F)c1ccc(C(F)(F)F)cc1)N1CCCC1c1ccccc1F (mixture of isomers) [Cpd 153] | % Inh @ 0.5 μM [2]: 99.694% |
|  | 432 nM | 88% | COc1ccc(C(Nc2sccc2C#N)C(=O)N2CCCC2c2ccccc2Cl)cc1 (stereo not drawn) [Cpd 105] |  |
| 101% | 17 nM |  | O=C(C(Nc1ccccc1F)c1ccc(-c2ccccn2)cc1)N1CCCC1c1ccccc1Cl (single isomer, unassigned) [Cpd 338] |  |
|  | 65.5 nM |  | O=C(C(Nc1ccccc1F)c1ccc(Br)cc1)N1[C@@H](CO)CC[C@H]1c1ccccc1 (single isomer, unassigned) [Cpd 242] |  |
|  | 131 nM | 97% | COc1ccc(NC(C(=O)N2Cc3ccccc3C2)c2ccc(Cl)cc2)cc1 (stereo not drawn) [Cpd 140] |  |
|  | 81 nM | 97% | O=C(C(Nc1ccccc1)c1ccc(Cl)cc1)N1Cc2ccccc2C1 (stereo not drawn) [Cpd 87] |  |
|  | 27 nM |  | O=C(C(Nc1ccccc1F)c1ccc(-c2ccccn2)cc1)N1CCCC1c1ccccc1Cl (single isomer, unassigned) [Cpd 339] | % Inh @ 0.2 μM [1]: 97% |
| 96% | 5 nM |  | O=C(C(Nc1c(F)cccc1F)c1ccc(Br)cc1)N1CCC[C@H]1c1ccccc1F (stereo partly drawn) [Cpd 181] |  |
| 97% | 109 nM and 38 nM | 94% | O=C(C(Nc1ccccc1F)c1ccc(Br)cc1)N1CCCC1c1ccccc1F (single isomer, unassigned) [Cpd 159] |  |
|  | 41.4 nM |  | O=C(C(Nc1ccccc1)c1ccc(C(F)(F)F)cc1)N1CCCC1c1ccccc1Cl (single isomer, unassigned) [Cpd 60] | % Inh @ 0.5 μM [2]: 103.24% |
|  | 2.6 nM |  | O=C(C(Nc1ccccc1F)c1cc2ccccc2s1)N1CCCC1c1ccccc1F (mixture of isomers) [Cpd 245] | % Inh @ 0.2 μM (canine TRPM8 HEK293, icilin): 98% |
|  | 313 nM |  | CC(C)(C)c1ccc(C(Nc2ccccc2)C(=O)N2CCCC2c2ccccc2Cl)cc1 (single isomer, unassigned) [Cpd 1] | inhibition at 1 µM (HEK293, 1 μM compound, canine TRPM8 HEK293, icilin): 101% |
| 92% | 22 nM and 27 nM |  | O=C(C(Nc1ccccc1F)c1ccc(-c2ccncc2)cc1)N1CCCC1c1ccccc1F (stereo not drawn) [Cpd 294] | % Inh @ 0.2 μM [1]: 102% |
|  | 42 nM | 102% | O=C(C(Nc1ccccc1)c1ccc(Br)cc1)N1CCCC1c1ccccc1Cl (stereo not drawn) [Cpd 67] |  |
|  | 80.3 nM | 98% | O=C(C(Nc1ccc(F)cc1)c1ccc(Cl)cc1)N1CCCC1c1ccccc1Cl (stereo not drawn) [Cpd 116] |  |
|  | 175 nM | 103% | O=C(C(Nc1ccccc1)c1ccc(C(F)(F)F)cc1)N1CCCC1c1ccccc1Cl (single isomer, unassigned) [Cpd 21] |  |
|  | 219 nM |  | O=C(C(Nc1ccccc1)c1ccc(C(F)(F)F)cc1)N1CCCC1c1ccccc1F (single isomer, unassigned) [Cpd 48] | % Inh @ 0.5 μM [2]: 85.869% |
|  | 111 nM | 100% | O=C(C(Nc1ccc(F)cc1F)c1ccc(Cl)cc1)N1Cc2ccccc2C1 (stereo not drawn) [Cpd 126] |  |

| inhibition at 0.2 µM (canine TRPM8 HEK293, icilin) | IC50 | inhibition at 0.5 µM (canine TRPM8 HEK293, icilin) | Molecule | also measured |
| --- | --- | --- | --- | --- |
| 100% | 8 nM |  | O=C(C(Nc1ccccc1F)c1ccc(N2CCOCC2)nc1)N1CCC[C@H]1c1ccccc1F (mixture of isomers) [Cpd 358] |  |
|  | 20.9 nM | 98% | O=C(C(Nc1ccccc1F)c1ccc(C(F)(F)F)cc1)N1CCCC1c1cccc(F)c1 (single isomer, unassigned) [Cpd 133] |  |
|  | 176 nM | 95% | O=C(C(Nc1ccccc1F)c1ccc(Br)cc1)N1CCc2ccccc2C1 (stereo not drawn) [Cpd 93] |  |
|  | 116 nM | 81% | COc1ccc(NC(C(=O)N2CCCC2c2ccccc2)c2ccc(Cl)cc2)cc1 (stereo not drawn) [Cpd 139] |  |
| 102% | 7 nM |  | O=C(C(Nc1ccccc1F)c1ccc(C(F)(F)F)cc1)N1CCCC1c1cccnc1 (stereo not drawn) [Cpd 203] |  |
| 100% | 22 nM and 25 nM | 102% | O=C(C(Nc1ccccc1F)c1ccc(C(F)(F)F)cc1)N1Cc2ccccc2C1 (stereo not drawn) [Cpd 64] |  |
| 98% | 30 nM |  | O=C(C(Cc1c(F)cccc1F)c1ccc(C(F)(F)F)cc1)N1CCCC1c1ccccc1Cl (stereo not drawn) [Cpd 267] |  |
| 98% | 17 nM |  | O=C(C(c1ccc(C(F)(F)F)cc1)N1CCc2ccccc21)N1CCC[C@H]1c1cccnc1 (single isomer, unassigned) [Cpd 274] |  |
|  | 188 nM | 79% | COc1ccc(NC(C(=O)N2Cc3cccc(F)c3C2)c2ccc(Cl)cc2)cc1 (stereo not drawn) [Cpd 141] |  |
|  | 182 nM | 75% | O=C(C(CNc1ccccc1)c1ccc(C(F)(F)F)cc1)N1CCCC1c1ccccc1F (stereo not drawn) [Cpd 103] |  |
|  | 28 nM | 102% | COc1ccc(C(Nc2ccccc2)C(=O)N2CCCC2c2ccccc2Cl)cc1 (stereo not drawn) [Cpd 66] |  |
|  | 145 nM | 94% | O=C(C(Nc1cccc(F)c1F)c1ccc(Cl)cc1)N1CCCC1c1ccccc1F (single isomer, unassigned) [Cpd 163] |  |
|  | 53.7 nM |  | O=C(C(Nc1ccccc1F)c1ccc2ncccc2c1)N1CCCC1c1ccccc1F (single isomer, unassigned) [Cpd 251] | % Inh @ 0.2 μM [1]: 90% |
|  |  |  | O=C(C(Nc1ccccc1F)c1ccc(N2CCOCC2)nc1)N1CCCC1c1ccccc1F (single isomer, unassigned) [Cpd 360] | % Inh @ 0.2 μM [1]: 43% |
|  |  |  | O=C(C(CNc1ccccc1)c1ccc(C(F)(F)F)cc1)N1CCCC1c1ccccc1 (mixture of isomers) [Cpd 95] | % Inh @ 0.5 μM [2]: 67% |
|  | 14.9 nM | 102% | O=C(C(Nc1ccccc1)c1ccc(C(F)(F)F)cc1)N1CCCC1c1cccs1 (stereo not drawn) [Cpd 24] |  |
|  | 316 nM | 93.2% | Cc1cccc2c1N(C(=O)C(Nc1ccccc1)c1ccc(C(F)(F)F)cc1)CC2 (stereo not drawn) [Cpd 27] |  |
|  |  |  | COc1ccc(C(Nc2ccccc2)C(=O)N2Cc3ccccc3C2)cc1 (racemic) [Cpd 73] | % Inh @ 0.5 μM (canine TRPM8 HEK293, icilin): 33% |
|  | 22 nM |  | COC(=O)c1cccc(C2CCCN2C(=O)C(Nc2ccccc2F)c2ccc(C(F)(F)F)cc2)c1 (mixture of isomers) [Cpd 221] | % Inh @ 0.2 μM (canine TRPM8 HEK293, icilin): 102% |
|  |  |  | COC(=O)C1CCC(c2ccccc2)N1C(=O)C(Nc1ccccc1)c1ccc(Cl)cc1 (stereo not drawn) [Cpd 213] | % Inh @ 0.2 μM [1]: 63% |
| 62% |  |  | CC(C)(O)c1ccccc1OC(C(=O)N1CCCC1c1ccccc1F)c1ccc(C(F)(F)F)cc1 (stereo not drawn) [Cpd 199, 1-[2-(2-Fluoro-phenyl)-pyrrolidin-1-yl]-2-[2-(1-hydroxy-1-methyl-ethyl)-phenoxy]-2-(4-trifluoromethyl-phenyl)-ethanone] |  |
| 98% | 45.2 nM |  | O=C(C(Nc1cc(F)ccc1F)c1ccc(Cl)cc1)N1Cc2ccccc2C1 (stereo not drawn) [Cpd 174] |  |
| 97% | 19 nM |  | O=C(C(Nc1ccccc1F)c1ccc(C(F)(F)F)cc1)N1CCCC1c1ccncc1 (stereo not drawn) [Cpd 197] |  |
| 102% | 13 nM |  | CCOC(=O)c1ccc(C(Nc2ccccc2F)C(=O)N2CCC[C@H]2c2ccccc2F)cc1 (mixture of isomers) [Cpd 182] |  |

| Molecule | inhibition at 0.2 µM (canine TRPM8 HEK293, icilin) | IC50 | inhibition at 0.5 µM (canine TRPM8 HEK293, icilin) | also measured |
| --- | --- | --- | --- | --- |
| 1-[2-(2-Chloro-phenyl)-pyrrolidin-1-yl]-3-phenylamino-2-(4-trifluoromethyl-phenyl)-propan-1-one [Cpd 83] |  | 248 nM |  | % Inh @ 0.5 μM (canine TRPM8 HEK293, icilin): 96% |
